Consider three molecules from paper PMC3479967 (Evidence-based Complementary and Alternative Medicine : eCAM, 2012).

Like-named read-outs stand apart in the source and are kept apart here.

The target in the test is T1, UGT1A4 (Homo sapiens, UniProt P22310).
T1 construct: purchased BD Gentest Corp. (Woburn, MA, USA); host or cells: baculovirus-infected insect cells
T1 sequence (P22310 29-534): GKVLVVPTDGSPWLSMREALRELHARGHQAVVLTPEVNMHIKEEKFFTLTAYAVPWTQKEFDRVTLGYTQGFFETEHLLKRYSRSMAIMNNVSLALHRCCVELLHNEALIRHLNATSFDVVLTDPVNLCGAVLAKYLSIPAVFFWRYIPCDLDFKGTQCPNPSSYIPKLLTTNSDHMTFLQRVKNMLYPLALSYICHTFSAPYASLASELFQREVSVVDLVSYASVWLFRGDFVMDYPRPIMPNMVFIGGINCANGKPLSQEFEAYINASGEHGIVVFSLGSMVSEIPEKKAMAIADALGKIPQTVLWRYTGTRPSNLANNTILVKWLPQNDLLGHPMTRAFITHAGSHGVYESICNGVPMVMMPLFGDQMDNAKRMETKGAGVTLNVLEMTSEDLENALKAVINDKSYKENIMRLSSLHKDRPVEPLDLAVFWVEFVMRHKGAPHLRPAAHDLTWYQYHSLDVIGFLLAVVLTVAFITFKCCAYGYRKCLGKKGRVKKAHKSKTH
The experiment in a line: Inhibition of recombinant UGT1A4 activity (TFP glucuronidation). It counts as biochemical. As to the method:
TFP was used as the substrate for UGT1A4. Trifluoperazine glucuronide (TFPG) formation was measured using a modification of the method reported. […] Reactions were initiated by the addition of UDPGA and incubations were performed at 37°C in a shaking water bath for 20 min. Incubations were terminated by the addition of 4% acetic acid/96% methanol (0.2 mL) and then centrifuged at 20,500 ×g for 15 min. A 40 μL aliquot of the supernatant fraction was injected into the HPLC column. […] A gradient mobile phase consisting initially of 30 : 70, mobile phase A (acetonitrile) verse mobile phase B (0.5% formic acid/water) was brought to a composition of 90 : 10 in 10 min which was held for 7 min, all at a flow rate of 1 mL/min. Column eluant was monitored by UV absorbance 256 nm. […] The negative controls are the incubation without UDPGA.

[1] abbreviates: recombinant human UGT1A4, 50 μM TFP, mean ± SD, read-out: IC50 for inhibition of UGT1A4 activity.

By IC50 is commonly meant the concentration that inhibits the measured activity by half. For `COc1ccc(-c2oc3c(CC=C(C)C)c(O)cc(O)c3c(=O)c2O)cc1` [Icaritin], the half-inhibitory concentration (IC50) is > 100 µM. In the case of `COc1ccc(-c2oc3c(CC=C(C)C)c(O[C@@H]4O[C@H](CO)[C@@H](O)[C@H](O)[C@H]4O)cc(O)c3c(=O)c2O[C@@H]2O[C@@H](C)[C@H](O)[C@@H](O)[C@H]2O)cc1` [Icariin], the IC50 under setting [1] amounted to 42.8 ± 2.4 µM.

For the molecule `COc1ccc(-c2oc3c(CC=C(C)C)c(O[C@@H]4O[C@H](CO)[C@@H](O)[C@H](O)[C@H]4O)cc(O)c3c(=O)c2O)cc1` [Icariside I], the concentration for half-maximal inhibition (IC50) under setting [1] is > 100 µM.
